In ChEMBL document CHEMBL1132887, “Syntheses and biological evaluation of novel 2alpha-substituted 1alpha,25-dihydroxyvitamin D3 analogues” (2000):

What was measured:
Parameters in all cases: reference not given here
HL-60 = assay: Compound was evaluated for HL-60 cell differentiation which was assessed in terms of expression of antigen CD11b; format: functional, Homo sapiens
Rattus norvegicus = species on record: Rattus norvegicus; assay: Compound was evaluated for calcium mobilizing activity in rat serum; format: functional
[1] = biological target: T1, Vitamin D3 receptor (Bos taurus) (UniProt Q28037); assay: Binding affinity for bovine thymus vitamin D receptor (VDR)
T1 sequence (whole entry): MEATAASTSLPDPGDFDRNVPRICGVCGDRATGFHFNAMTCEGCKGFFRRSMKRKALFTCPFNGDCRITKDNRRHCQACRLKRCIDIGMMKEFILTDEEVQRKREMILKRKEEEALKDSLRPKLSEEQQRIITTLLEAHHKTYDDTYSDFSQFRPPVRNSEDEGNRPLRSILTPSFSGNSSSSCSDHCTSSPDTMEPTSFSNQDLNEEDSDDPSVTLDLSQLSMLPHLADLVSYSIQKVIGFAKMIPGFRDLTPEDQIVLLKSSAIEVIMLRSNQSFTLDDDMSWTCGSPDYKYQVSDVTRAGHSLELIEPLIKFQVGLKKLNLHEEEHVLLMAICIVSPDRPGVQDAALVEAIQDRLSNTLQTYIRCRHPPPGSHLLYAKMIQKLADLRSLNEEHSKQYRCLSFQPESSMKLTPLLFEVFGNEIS

[2] = biological target: T2, Vitamin D-binding protein (Rattus norvegicus) (UniProt P04276); assay: Compound was tested for binding affinity against rat serum DBP (vitamin D binding protein); format: cell-free
T2 sequence (whole entry): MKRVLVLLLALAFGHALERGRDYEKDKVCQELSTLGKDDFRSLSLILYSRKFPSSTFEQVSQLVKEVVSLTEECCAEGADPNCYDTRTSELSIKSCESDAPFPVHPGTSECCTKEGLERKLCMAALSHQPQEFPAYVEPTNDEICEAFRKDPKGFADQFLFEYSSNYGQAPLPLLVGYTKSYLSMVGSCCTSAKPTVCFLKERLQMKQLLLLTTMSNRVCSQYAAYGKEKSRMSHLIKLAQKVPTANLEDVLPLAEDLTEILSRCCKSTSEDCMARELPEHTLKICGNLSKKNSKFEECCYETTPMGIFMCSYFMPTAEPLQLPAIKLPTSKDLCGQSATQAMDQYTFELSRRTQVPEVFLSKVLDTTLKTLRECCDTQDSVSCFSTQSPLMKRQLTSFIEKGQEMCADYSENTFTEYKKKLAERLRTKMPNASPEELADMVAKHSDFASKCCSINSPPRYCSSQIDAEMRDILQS

C=C1/C(=C\C=C2/CCC[C@]3(C)[C@@H]([C@H](C)CCCC(C)(C)O)CC[C@@H]23)C[C@@H](O)[C@H](CC)[C@@H]1O
Activity (HL-60): 106 | Activity (Rattus norvegicus): 68 | Activity [1]: 40 | Activity [2]: 48

C=C1/C(=C\C=C2/CCC[C@]3(C)[C@@H]([C@H](C)CCCC(C)(C)O)CC[C@@H]23)C[C@@H](O)C[C@@H]1O [CALCITRIOL]
Activity (HL-60): 100 | Activity (Rattus norvegicus): 100 | Activity [1]: 100 | Activity [2]: 100

C=C1/C(=C\C=C2/CCC[C@]3(C)[C@@H]([C@H](C)CCCC(C)(C)O)CC[C@@H]23)C[C@@H](O)[C@H](CCC)[C@@H]1O
Activity (HL-60): 44 | Activity (Rattus norvegicus): 636 | Activity [1]: 20 | Activity [2]: 21

C=C1/C(=C\C=C2/CCC[C@]3(C)[C@@H]([C@H](C)CCCC(C)(C)O)CC[C@@H]23)C[C@@H](O)[C@H](CCCO)[C@@H]1O
Activity (HL-60): 240 | Activity (Rattus norvegicus): 50866 | Activity [1]: 300 | Activity [2]: 362

C=C1/C(=C\C=C2/CCC[C@]3(C)[C@@H]([C@H](C)CCCC(C)(C)O)CC[C@@H]23)C[C@@H](O)[C@H](CCO)[C@@H]1O
Activity (HL-60): 86 | Activity (Rattus norvegicus): 372 | Activity [1]: 70 | Activity [2]: 74

C=C1/C(=C\C=C2/CCC[C@]3(C)[C@@H]([C@H](C)CCCC(C)(C)O)CC[C@@H]23)C[C@@H](O)[C@H](CO)[C@@H]1O
Activity (HL-60): 10 | Activity (Rattus norvegicus): 124 | Activity [1]: 20 | Activity [2]: 95

C=C1/C(=C\C=C2/CCC[C@]3(C)[C@@H]([C@H](C)CCCC(C)(C)O)CC[C@@H]23)C[C@@H](O)[C@H](C)[C@@H]1O
Activity (HL-60): 444 | Activity (Rattus norvegicus): 658 | Activity [1]: 400 | Activity [2]: 44
